Reference: the kinase profiling compilation of Christmann-Franck et al. (2016)

Experiments:
Experiment in all cases: KINOMEscan competition binding
Conditions in all cases: compound 10.0 µM
[1] = test system: ABL1 (human), P00519 [Y253F]
ABL2 (human) = ABL2 (human) (UniProt P42684)
BMPR1A (human) = BMPR1A (human) (UniProt P36894)
CAMKK2 (human) = CAMKK2 (human) (UniProt Q96RR4)
CDK17 (human) = CDK17 (human) (UniProt Q00537)
DDR2 (human) = DDR2 (human) (UniProt Q16832)
DMPK (human) = DMPK (human) (UniProt Q09013)
DYRK1B (human) = DYRK1B (human) (UniProt Q9Y463)
EIF2AK2 (human) = EIF2AK2 (human) (UniProt P19525)
EPHB6 (human) = EPHB6 (human) (UniProt O15197)
FLT3 (human) = FLT3 (human) (UniProt P36888)
FRK (human) = FRK (human) (UniProt P42685)
HUNK (human) = HUNK (human) (UniProt P57058)
ICK (human) = ICK (human) (UniProt Q9UPZ9)
LYN (human) = LYN (human) (UniProt P07948)
MAP2K2 (human) = MAP2K2 (human) (UniProt P36507)
MAP2K5 (human) = MAP2K5 (human) (UniProt Q13163)
MAP3K15 (human) = MAP3K15 (human) (UniProt Q6ZN16)
MAPK1 (human) = MAPK1 (human) (UniProt P28482)
MAPKAPK2 (human) = MAPKAPK2 (human) (UniProt P49137)
MARK1 (human) = MARK1 (human) (UniProt Q9P0L2)
MARK3 (human) = MARK3 (human) (UniProt P27448)
MARK4 (human) = MARK4 (human) (UniProt Q96L34)
MYLK4 (human) = MYLK4 (human) (UniProt Q86YV6)
PHKG1 (human) = PHKG1 (human) (UniProt Q16816)
PIK3C2G (human) = PIK3C2G (human) (UniProt O75747)
PLK1 (human) = PLK1 (human) (UniProt P53350)
PRKCH (human) = PRKCH (human) (UniProt P24723)
RIOK1 (human) = RIOK1 (human) (UniProt Q9BRS2)
RPS6KA4 KD2 (human) = RPS6KA4 KD2 (human) (UniProt O75676)
SGK110 (human) = SGK110 (human) (UniProt P0C264)
SGK3 (human) = SGK3 (human) (UniProt Q96BR1)
STK16 (human) = STK16 (human) (UniProt O75716)
STK32A (human) = STK32A (human) (UniProt Q8WU08)
STK36 (human) = STK36 (human) (UniProt Q9NRP7)
STK38 (human) = STK38 (human) (UniProt Q15208)
TAOK1 (human) = TAOK1 (human) (UniProt Q7L7X3)
TEC (human) = TEC (human) (UniProt P42680)
TEK (human) = TEK (human) (UniProt Q02763)
TGFBR2 (human) = TGFBR2 (human) (UniProt P37173)

Sequence of MARK1 (human) (Q9P0L2 whole entry, looked up): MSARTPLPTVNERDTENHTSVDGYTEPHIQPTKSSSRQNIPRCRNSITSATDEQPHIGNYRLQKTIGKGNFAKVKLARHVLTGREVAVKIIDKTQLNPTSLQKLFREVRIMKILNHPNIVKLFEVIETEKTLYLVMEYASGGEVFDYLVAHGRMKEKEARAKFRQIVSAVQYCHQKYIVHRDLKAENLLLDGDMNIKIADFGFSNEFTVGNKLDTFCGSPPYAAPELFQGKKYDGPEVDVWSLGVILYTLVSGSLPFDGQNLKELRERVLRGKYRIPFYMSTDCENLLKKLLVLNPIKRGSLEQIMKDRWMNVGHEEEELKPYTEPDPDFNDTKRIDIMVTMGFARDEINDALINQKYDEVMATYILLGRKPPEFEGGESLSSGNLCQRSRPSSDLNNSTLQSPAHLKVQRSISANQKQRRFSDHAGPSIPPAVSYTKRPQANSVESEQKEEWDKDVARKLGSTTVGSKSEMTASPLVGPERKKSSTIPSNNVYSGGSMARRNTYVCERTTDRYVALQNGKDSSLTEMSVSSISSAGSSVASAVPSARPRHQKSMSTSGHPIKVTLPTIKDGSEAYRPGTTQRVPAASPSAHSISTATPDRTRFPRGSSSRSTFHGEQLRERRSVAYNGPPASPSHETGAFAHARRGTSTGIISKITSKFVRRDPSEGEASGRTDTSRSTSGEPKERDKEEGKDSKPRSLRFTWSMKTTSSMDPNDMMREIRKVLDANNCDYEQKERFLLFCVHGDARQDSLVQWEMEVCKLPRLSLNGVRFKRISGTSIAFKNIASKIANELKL
Sequence of SGK110 (human) (P0C264 whole entry, looked up): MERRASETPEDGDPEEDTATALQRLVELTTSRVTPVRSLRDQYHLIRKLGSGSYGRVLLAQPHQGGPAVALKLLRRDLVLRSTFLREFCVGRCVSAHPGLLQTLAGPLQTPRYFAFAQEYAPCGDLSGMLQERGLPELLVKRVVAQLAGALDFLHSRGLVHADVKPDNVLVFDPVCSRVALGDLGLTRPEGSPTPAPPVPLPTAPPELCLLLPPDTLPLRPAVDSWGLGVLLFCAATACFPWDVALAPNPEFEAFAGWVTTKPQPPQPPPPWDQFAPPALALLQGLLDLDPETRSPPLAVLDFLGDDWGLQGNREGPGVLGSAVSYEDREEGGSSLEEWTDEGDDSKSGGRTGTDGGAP
Sequence of DDR2 (human) (Q16832 whole entry, looked up): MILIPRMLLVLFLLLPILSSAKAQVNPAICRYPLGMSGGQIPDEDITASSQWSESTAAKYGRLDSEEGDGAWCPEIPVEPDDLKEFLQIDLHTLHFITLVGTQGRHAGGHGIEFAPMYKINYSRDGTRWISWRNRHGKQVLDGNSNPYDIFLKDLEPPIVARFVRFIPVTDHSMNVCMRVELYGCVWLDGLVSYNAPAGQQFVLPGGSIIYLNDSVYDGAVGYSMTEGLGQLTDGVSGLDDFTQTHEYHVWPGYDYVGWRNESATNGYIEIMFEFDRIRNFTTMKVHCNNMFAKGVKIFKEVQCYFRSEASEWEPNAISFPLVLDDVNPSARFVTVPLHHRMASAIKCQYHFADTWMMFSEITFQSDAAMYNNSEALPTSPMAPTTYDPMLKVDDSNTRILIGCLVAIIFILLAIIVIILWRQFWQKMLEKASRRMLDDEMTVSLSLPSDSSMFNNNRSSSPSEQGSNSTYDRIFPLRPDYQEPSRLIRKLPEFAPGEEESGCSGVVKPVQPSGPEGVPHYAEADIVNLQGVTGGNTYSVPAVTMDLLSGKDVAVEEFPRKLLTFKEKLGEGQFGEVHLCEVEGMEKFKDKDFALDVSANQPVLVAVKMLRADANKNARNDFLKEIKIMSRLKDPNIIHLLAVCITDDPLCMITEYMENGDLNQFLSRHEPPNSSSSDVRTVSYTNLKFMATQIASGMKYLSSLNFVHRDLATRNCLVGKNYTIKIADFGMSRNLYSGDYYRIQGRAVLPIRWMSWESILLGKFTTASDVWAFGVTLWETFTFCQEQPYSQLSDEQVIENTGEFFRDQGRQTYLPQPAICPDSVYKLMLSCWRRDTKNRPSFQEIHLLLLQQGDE
Sequence of EIF2AK2 (human) (P19525 whole entry, looked up): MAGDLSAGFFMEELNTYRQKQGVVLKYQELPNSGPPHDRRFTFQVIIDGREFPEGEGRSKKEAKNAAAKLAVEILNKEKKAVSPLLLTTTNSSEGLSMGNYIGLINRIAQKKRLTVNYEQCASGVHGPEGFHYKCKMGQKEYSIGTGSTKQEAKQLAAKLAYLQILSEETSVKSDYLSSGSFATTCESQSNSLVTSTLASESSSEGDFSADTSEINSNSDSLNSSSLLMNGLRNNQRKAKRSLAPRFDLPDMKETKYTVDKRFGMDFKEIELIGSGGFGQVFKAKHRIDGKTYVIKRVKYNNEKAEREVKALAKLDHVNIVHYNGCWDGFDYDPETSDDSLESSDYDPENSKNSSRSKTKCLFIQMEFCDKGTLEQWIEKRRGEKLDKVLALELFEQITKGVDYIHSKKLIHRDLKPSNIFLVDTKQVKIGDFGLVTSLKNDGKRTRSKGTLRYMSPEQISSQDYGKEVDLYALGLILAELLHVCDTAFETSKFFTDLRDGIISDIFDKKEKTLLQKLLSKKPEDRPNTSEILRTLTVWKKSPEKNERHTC
Sequence of MAP2K5 (human) (Q13163 whole entry, looked up): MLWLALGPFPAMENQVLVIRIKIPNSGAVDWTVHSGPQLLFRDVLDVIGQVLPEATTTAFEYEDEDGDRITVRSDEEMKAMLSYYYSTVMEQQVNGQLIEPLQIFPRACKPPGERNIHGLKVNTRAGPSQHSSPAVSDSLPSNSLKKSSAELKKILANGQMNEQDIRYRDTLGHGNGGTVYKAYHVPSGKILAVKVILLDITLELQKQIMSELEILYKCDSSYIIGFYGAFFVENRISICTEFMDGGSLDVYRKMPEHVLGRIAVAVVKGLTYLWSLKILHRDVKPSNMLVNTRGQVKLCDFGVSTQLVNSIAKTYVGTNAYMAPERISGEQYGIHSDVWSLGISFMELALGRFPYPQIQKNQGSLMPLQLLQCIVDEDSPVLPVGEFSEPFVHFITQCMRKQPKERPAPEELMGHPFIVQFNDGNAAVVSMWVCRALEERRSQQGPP
Sequence of HUNK (human) (P57058 whole entry, looked up): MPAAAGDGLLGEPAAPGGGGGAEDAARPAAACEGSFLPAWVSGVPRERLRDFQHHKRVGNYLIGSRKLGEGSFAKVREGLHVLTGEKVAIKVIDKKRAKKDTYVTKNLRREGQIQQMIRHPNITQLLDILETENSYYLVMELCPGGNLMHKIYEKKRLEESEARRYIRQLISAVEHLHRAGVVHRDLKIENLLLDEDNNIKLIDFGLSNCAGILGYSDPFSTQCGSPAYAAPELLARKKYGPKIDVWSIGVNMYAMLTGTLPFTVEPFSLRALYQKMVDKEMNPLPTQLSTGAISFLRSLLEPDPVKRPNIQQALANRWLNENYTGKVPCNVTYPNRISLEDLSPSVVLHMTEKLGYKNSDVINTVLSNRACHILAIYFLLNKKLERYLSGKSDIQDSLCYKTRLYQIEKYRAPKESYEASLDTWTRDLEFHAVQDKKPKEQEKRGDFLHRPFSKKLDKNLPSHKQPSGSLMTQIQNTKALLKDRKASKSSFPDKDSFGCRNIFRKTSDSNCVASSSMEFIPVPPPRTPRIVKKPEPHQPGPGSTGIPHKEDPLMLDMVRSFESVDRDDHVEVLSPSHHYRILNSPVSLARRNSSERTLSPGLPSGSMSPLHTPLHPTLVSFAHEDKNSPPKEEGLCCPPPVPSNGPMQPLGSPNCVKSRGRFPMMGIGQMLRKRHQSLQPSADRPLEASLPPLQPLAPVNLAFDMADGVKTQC
Sequence of MAPK1 (human) (P28482 whole entry, looked up): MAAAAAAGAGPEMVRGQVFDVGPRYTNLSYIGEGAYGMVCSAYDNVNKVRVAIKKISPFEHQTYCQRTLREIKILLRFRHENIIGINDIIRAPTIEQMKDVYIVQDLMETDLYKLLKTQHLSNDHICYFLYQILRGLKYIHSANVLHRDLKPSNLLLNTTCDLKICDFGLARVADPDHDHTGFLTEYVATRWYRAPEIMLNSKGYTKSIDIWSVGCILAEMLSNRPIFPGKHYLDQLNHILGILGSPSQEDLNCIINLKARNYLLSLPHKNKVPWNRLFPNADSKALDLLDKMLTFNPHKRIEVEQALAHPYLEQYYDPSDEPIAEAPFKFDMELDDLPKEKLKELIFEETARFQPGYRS
Sequence of MYLK4 (human) (Q86YV6 whole entry, looked up): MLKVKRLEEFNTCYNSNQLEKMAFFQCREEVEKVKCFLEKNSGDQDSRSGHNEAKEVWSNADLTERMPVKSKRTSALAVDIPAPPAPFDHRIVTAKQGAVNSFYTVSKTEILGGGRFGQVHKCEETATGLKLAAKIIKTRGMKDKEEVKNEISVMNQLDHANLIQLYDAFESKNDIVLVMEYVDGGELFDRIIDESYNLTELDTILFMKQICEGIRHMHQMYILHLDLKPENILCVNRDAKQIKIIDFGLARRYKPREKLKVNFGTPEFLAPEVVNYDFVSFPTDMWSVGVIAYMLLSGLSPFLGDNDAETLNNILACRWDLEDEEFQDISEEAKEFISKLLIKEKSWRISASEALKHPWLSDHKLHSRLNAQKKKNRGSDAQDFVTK
Sequence of MAPKAPK2 (human) (P49137 whole entry, looked up): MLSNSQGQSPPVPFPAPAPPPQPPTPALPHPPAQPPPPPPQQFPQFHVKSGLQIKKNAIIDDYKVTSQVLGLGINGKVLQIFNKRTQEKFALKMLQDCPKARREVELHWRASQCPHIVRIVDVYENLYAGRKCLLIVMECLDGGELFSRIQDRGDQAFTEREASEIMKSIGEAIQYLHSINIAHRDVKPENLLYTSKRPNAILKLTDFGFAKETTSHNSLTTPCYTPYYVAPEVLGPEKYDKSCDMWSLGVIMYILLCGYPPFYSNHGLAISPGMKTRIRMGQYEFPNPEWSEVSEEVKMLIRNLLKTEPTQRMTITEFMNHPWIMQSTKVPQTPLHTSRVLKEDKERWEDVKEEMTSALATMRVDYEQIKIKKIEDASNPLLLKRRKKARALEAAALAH

COc1ccc(N(C(=O)Oc2c(C)cccc2C)c2ccnc(Nc3ccc(N4CCN(C)CC4)cc3)n2)c(OC)c1 was tested, and the kinase still bound, per cent of control [1] was 0.1%, the kinase still bound, per cent of control (ABL2 (human)) was 0.1% and the kinase still bound, per cent of control (BMPR1A (human)) was 0.1%. For the same compound, the kinase still bound, per cent of control (CAMKK2 (human)) was 56%, the kinase still bound, per cent of control (CDK17 (human)) was 80% and the kinase still bound, per cent of control (DDR2 (human)) was 0%. It also gave a kinase still bound, per cent of control (DMPK (human)) of 0.05%, a kinase still bound, per cent of control (DYRK1B (human)) of 68% and a kinase still bound, per cent of control (EIF2AK2 (human)) of 92%. For the same compound, the kinase still bound, per cent of control (EPHB6 (human)) was 1.2%, the kinase still bound, per cent of control (FLT3 (human)) was 2.3% and the kinase still bound, per cent of control (FRK (human)) was 0%. For the same compound, the kinase still bound, per cent of control (HUNK (human)) was 9%, the kinase still bound, per cent of control (ICK (human)) was 100% and the kinase still bound, per cent of control (LYN (human)) was 0%. It also gave a kinase still bound, per cent of control (MAP2K2 (human)) of 46%, a kinase still bound, per cent of control (MAP2K5 (human)) of 0.55% and a kinase still bound, per cent of control (MAP3K15 (human)) of 83%. It also gave a kinase still bound, per cent of control (MAPK1 (human)) of 87%, a kinase still bound, per cent of control (MAPKAPK2 (human)) of 100% and a kinase still bound, per cent of control (MARK1 (human)) of 24%. It also gave a kinase still bound, per cent of control (MARK3 (human)) of 4.8%, a kinase still bound, per cent of control (MARK4 (human)) of 49% and a kinase still bound, per cent of control (MYLK4 (human)) of 100%. It also gave a kinase still bound, per cent of control (PHKG1 (human)) of 12%, a kinase still bound, per cent of control (PIK3C2G (human)) of 98% and a kinase still bound, per cent of control (PLK1 (human)) of 100%. It also gave a kinase still bound, per cent of control (PRKCH (human)) of 35%, a kinase still bound, per cent of control (RIOK1 (human)) of 5.8% and a kinase still bound, per cent of control (RPS6KA4 KD2 (human)) of 100%. For the same compound, the kinase still bound, per cent of control (SGK110 (human)) was 44%, the kinase still bound, per cent of control (SGK3 (human)) was 100% and the kinase still bound, per cent of control (STK16 (human)) was 15%. It also gave a kinase still bound, per cent of control (STK32A (human)) of 8.2%, a kinase still bound, per cent of control (STK36 (human)) of 0.95% and a kinase still bound, per cent of control (STK38 (human)) of 100%. The kinase still bound, per cent of control (TAOK1 (human)) was 11%, the kinase still bound, per cent of control (TEC (human)) was 3.7% and the kinase still bound, per cent of control (TEK (human)) was 0.3%. It also gave a kinase still bound, per cent of control (TGFBR2 (human)) of 16%.

Compound CCN1CCN(C(=O)Cc2ccc(Nc3ncc(F)c(Nc4ccc(C(=O)Nc5ccccc5Cl)cc4)n3)cc2)CC1 has a kinase still bound, per cent of control [1] of 16%, a kinase still bound, per cent of control (ABL2 (human)) of 20% and a kinase still bound, per cent of control (BMPR1A (human)) of 3.3%. The kinase still bound, per cent of control (CAMKK2 (human)) was 48%, the kinase still bound, per cent of control (CDK17 (human)) was 35% and the kinase still bound, per cent of control (DDR2 (human)) was 100%. It also gave a kinase still bound, per cent of control (DMPK (human)) of 100%, a kinase still bound, per cent of control (DYRK1B (human)) of 46% and a kinase still bound, per cent of control (EIF2AK2 (human)) of 15%. It also gave a kinase still bound, per cent of control (EPHB6 (human)) of 15%, a kinase still bound, per cent of control (FLT3 (human)) of 0.7% and a kinase still bound, per cent of control (FRK (human)) of 28%. For the same compound, the kinase still bound, per cent of control (HUNK (human)) was 49%, the kinase still bound, per cent of control (ICK (human)) was 100% and the kinase still bound, per cent of control (LYN (human)) was 46%. It also gave a kinase still bound, per cent of control (MAP2K2 (human)) of 57%, a kinase still bound, per cent of control (MAP2K5 (human)) of 9.8% and a kinase still bound, per cent of control (MAP3K15 (human)) of 100%. It also gave a kinase still bound, per cent of control (MAPK1 (human)) of 100%, a kinase still bound, per cent of control (MAPKAPK2 (human)) of 100% and a kinase still bound, per cent of control (MARK1 (human)) of 51%. It also gave a kinase still bound, per cent of control (MARK3 (human)) of 80%, a kinase still bound, per cent of control (MARK4 (human)) of 17% and a kinase still bound, per cent of control (MYLK4 (human)) of 11%. The kinase still bound, per cent of control (PHKG1 (human)) was 82%, the kinase still bound, per cent of control (PIK3C2G (human)) was 39% and the kinase still bound, per cent of control (PLK1 (human)) was 94%. It also gave a kinase still bound, per cent of control (PRKCH (human)) of 100%, a kinase still bound, per cent of control (RIOK1 (human)) of 0% and a kinase still bound, per cent of control (RPS6KA4 KD2 (human)) of 100%. It also gave a kinase still bound, per cent of control (SGK110 (human)) of 40%, a kinase still bound, per cent of control (SGK3 (human)) of 100% and a kinase still bound, per cent of control (STK16 (human)) of 1.6%. The kinase still bound, per cent of control (STK32A (human)) was 100%, the kinase still bound, per cent of control (STK36 (human)) was 2.1% and the kinase still bound, per cent of control (STK38 (human)) was 70%. The kinase still bound, per cent of control (TAOK1 (human)) was 62%, the kinase still bound, per cent of control (TEC (human)) was 42% and the kinase still bound, per cent of control (TEK (human)) was 48%. The kinase still bound, per cent of control (TGFBR2 (human)) was 100%.

With COc1cc2ncnc(-n3nc(-c4ccccn4)nc3N)c2cc1OC the kinase still bound, per cent of control [1] was 0.3%, the kinase still bound, per cent of control (ABL2 (human)) was 33% and the kinase still bound, per cent of control (BMPR1A (human)) was 0.3%. For the same compound, the kinase still bound, per cent of control (CAMKK2 (human)) was 9.1%, the kinase still bound, per cent of control (CDK17 (human)) was 59% and the kinase still bound, per cent of control (DDR2 (human)) was 22%. For the same compound, the kinase still bound, per cent of control (DMPK (human)) was 100%, the kinase still bound, per cent of control (DYRK1B (human)) was 2% and the kinase still bound, per cent of control (EIF2AK2 (human)) was 21%. For the same compound, the kinase still bound, per cent of control (EPHB6 (human)) was 2.2%, the kinase still bound, per cent of control (FLT3 (human)) was 20% and the kinase still bound, per cent of control (FRK (human)) was 19%. The kinase still bound, per cent of control (HUNK (human)) was 41%, the kinase still bound, per cent of control (ICK (human)) was 47% and the kinase still bound, per cent of control (LYN (human)) was 48%. For the same compound, the kinase still bound, per cent of control (MAP2K2 (human)) was 74%, the kinase still bound, per cent of control (MAP2K5 (human)) was 1.1% and the kinase still bound, per cent of control (MAP3K15 (human)) was 54%. For the same compound, the kinase still bound, per cent of control (MAPK1 (human)) was 56%, the kinase still bound, per cent of control (MAPKAPK2 (human)) was 100% and the kinase still bound, per cent of control (MARK1 (human)) was 86%. It also gave a kinase still bound, per cent of control (MARK3 (human)) of 100%, a kinase still bound, per cent of control (MARK4 (human)) of 75% and a kinase still bound, per cent of control (MYLK4 (human)) of 25%. The kinase still bound, per cent of control (PHKG1 (human)) was 55%, the kinase still bound, per cent of control (PIK3C2G (human)) was 8.2% and the kinase still bound, per cent of control (PLK1 (human)) was 22%. The kinase still bound, per cent of control (PRKCH (human)) was 100%, the kinase still bound, per cent of control (RIOK1 (human)) was 29% and the kinase still bound, per cent of control (RPS6KA4 KD2 (human)) was 0.6%. It also gave a kinase still bound, per cent of control (SGK110 (human)) of 100%, a kinase still bound, per cent of control (SGK3 (human)) of 74% and a kinase still bound, per cent of control (STK16 (human)) of 2.8%. The kinase still bound, per cent of control (STK32A (human)) was 64%, the kinase still bound, per cent of control (STK36 (human)) was 7.4% and the kinase still bound, per cent of control (STK38 (human)) was 51%. For the same compound, the kinase still bound, per cent of control (TAOK1 (human)) was 3.2%, the kinase still bound, per cent of control (TEC (human)) was 100% and the kinase still bound, per cent of control (TEK (human)) was 45%. For the same compound, the kinase still bound, per cent of control (TGFBR2 (human)) was 9%.
